How the values were obtained:
[1] = test system: nursing women between the 5th and 35 postpartum days; format: in vivo, human; conditions: 5 mg TRH oral single dose
Protocol: To test the efficacy of TRH, six nursing women between the 5th and 35 postpartum days were studied. Each received one 5 mg capsule of TRH in the early morning after an overnight fast. Six nursing women matched for postpartum interval received a placebo of lactose sugar. Blood samples were drawn from an indwelling catheter in an antecubital vein at -5,0,30,60,120, and 180 min.
A set of specific radioimmunoassays were employed for the measurement of plasma hormones. PRL was measured by a modification of the radioimmunoassay of Hwang et al., Proc. Nat. Acad. Sci., 68:1902 (1971) using the iodination technique of Greenwood et al., Biochem J., 89:114 (1963). Plasma LH and FSH were measured by using a modification of the double antibody radioimmunoassay of Midgely, Endocrinology, 79:10 (1966). Thyrotropin (TSH) was determined by a double antibody radioimmunoassay of Odell, Rayford and Ross, J. Lab. Clin. Med., 70:973 (1967). Plasma thyroxine (T4) by column was measured by the method of Pileggi and Kessler, Clin. Chem., 14:339 (1968). A modification of the immunoassay of Roth et al., Science, 140:987 (1963), was used to measure plasma growth hormone (GH) utilizing the iodination technique for prolactin. Antibody bound radioactivity was separated by the dextran-charcoal method of Herbert et al., J. Clin. Endocrinol. Metab., 25:1375 (1965). […]

[2] = test system: women practicing full nursing; format: in vivo, human
Protocol: (§1) Sixty women volunteered for this major study and each was instructed to practice full nursing for at least 90 postpartum days. Fifty percent of the women were dropped from the study before the end of the first postpartum month due to changes in nursing patterns. The remaining 30 women were randomly divided into TRH and control groups. TRH, 5 mg or a lactose placebo, was administered daily at 0800 and 2000 h for 30 days beginning on day 29 postpartum. Blood and milk samples were obtained on the first postpartum day and at weekly intervals between 1500 and 1600 h. Thus, blood samples were never obtained sooner than 7 h after the ingestion of TRH. Each women's nursing pattern was recorded by nurse-midwives. Charts of infant growth and development were plotted weekly.
(§2) With regard to sampling procedures, individual blood samples were collected in heparinized vacuum tubes. Neither nursing nor maternal food intake had occurred in the previous 3 h. The sampling procedure in Examples II and III consisted of placing the patient at rest for a minimum of 15 min after which blood was drawn from an antecubital vein. Blood samples were centrifuged and plasma was removed and stored at -20C. Samples originating outside the continental United States were delivered to the laboratory at quarterly intervals in dry ice by special messenger.
(§3) In Examples II and III, milk was obtained from each breast following blood sampling and immediately prior to nursing. The women were instructed to grasp first the right and then the left breast, kneading it gently toward the nipple. Thus, 10 ml or more of the fore milk was removed with ease through each nipple and combined in a sterile container. The sample was thoroughly mixed by vigorous shaking. A compressed tablet of mercuric chloride and potassium dichromate was then added as a preservative to each sample before storing.
(§4) A set of specific radioimmunoassays were employed for the measurement of plasma hormones. PRL was measured by a modification of the radioimmunoassay of Hwang et al., Proc. Nat. Acad. Sci., 68:1902 (1971) using the iodination technique of Greenwood et al., Biochem J., 89:114 (1963). Plasma LH and FSH were measured by using a modification of the double antibody radioimmunoassay of Midgely, Endocrinology, 79:10 (1966). Thyrotropin (TSH) was determined by a double antibody radioimmunoassay of Odell, Rayford and Ross, J. Lab. Clin. Med., 70:973 (1967). Plasma thyroxine (T4) by column was measured by the method of Pileggi and Kessler, Clin. Chem., 14:339 (1968). A modification of the immunoassay of Roth et al., Science, 140:987 (1963), was used to measure plasma growth hormone (GH) utilizing the iodination technique for prolactin. Antibody bound radioactivity was separated by the dextran-charcoal method of Herbert et al., J. Clin. Endocrinol. Metab., 25:1375 (1965). Each of the references mentioned in this paragraph is incorporated herein by reference.
For the analysis of milk composition, samples were thawed and held at room temperature for no more than 30 min. Aliquots were analyzed for percent fat, protein and lactose concentrations using the infrared milk analyzer (IRMA). Samples less than 30 ml in volume (about 10% of the total) were diluted up to 35 ml with distilled water. These were then homogenized with a Biosonic Model 3 Ultrasonicater (Bronwill Scientific Co., Rochester, N.Y.) at an exposed intensity of 70 vibrations per second for 30 sec. These samples were stored overnight at 4° C. and then analyzed for composition. […]

[3] = test system: infants of TRH-treated mothers; design: species or system human; conditions: in vivo, po
Protocol: as §1, with “Charts of infant growth and development were plotted weekly.” left out
A set of specific radioimmunoassays were employed for the measurement of plasma hormones. PRL was measured by a modification of the radioimmunoassay of Hwang et al., Proc. Nat. […] Plasma LH and FSH were measured by using a modification of the double antibody radioimmunoassay of Midgely, Endocrinology, 79:10 (1966). Thyrotropin (TSH) was determined by a double antibody radioimmunoassay of Odell, Rayford and Ross, J. Lab. […] Plasma thyroxine (T4) by column was measured by the method of Pileggi and Kessler, Clin. Chem., 14:339 (1968). […] Antibody bound radioactivity was separated by the dextran-charcoal method of Herbert et al., J. Clin. Endocrinol. […]

[4] = test system: women with lactational insufficiency practicing partial nursing; assay: Example III: oral TRH 5 mg or 20 mg twice a day for 5 days in women with lactational insufficiency; format: in vivo, human
Protocol: A group of 13 women with lactational insufficiency practicing partial nursing between 13-71 postpartum days were next studied. Four received TRH 5 mg and nine received 20 mg twice a day at 0800 and 2000 h for 5 days. Blood samples were obtained prior to the first capsule and daily thereafter for 5 days before taking the morning dose of TRH. Daily milk samples were also collected.
as §2, §3, §4
For the analysis of milk composition, samples were thawed and held at room temperature for no more than 30 min. Aliquots were analyzed for percent fat, protein and lactose concentrations using the infrared milk analyzer (IRMA). Samples less than 30 ml in volume (about 10% of the total) were diluted up to 35 ml with distilled water. These were then homogenized with a Biosonic Model 3 Ultrasonicater (Bronwill Scientific Co., Rochester, N.Y.) at an exposed intensity of 70 vibrations per second for 30 sec. These samples were stored overnight at 4° C. and then analyzed for composition. Corrections were made for any dilution.

[5] = test system: women with insufficient lactation; design: species or system human; conditions: in vivo
Protocol: as §4
As an experimental exercise, two women with insufficient lactation gave consent for the administration of 40 mg of oral TRH twice a day or the same time schedule as noted above. On the 7th day of therapy the patients were reevaluated and found to have lost weight. Their pulse rate was elevated as was their blood pressure. […]

surrogate mothers = assay: Induction of lactation in surrogate (adoptive) mothers with conjugated estrogens plus oral TRH; format: in vivo, human
Text: An additional use of TRH is in surrogate mothers. Studies in accordance with the present invention have involved the administration of TRH to adoptive mothers. In most instances, such women have undergone voluntary sterilization following the birth of natural children but, for one reason or another, wish to have another child. By the present invention, lactation has been induced in such women for the benefit of their adopted child by attempting to simulate the effects of pregnancy on prolactin secretion and, at the same time, by requesting that the […] practice auto-stimulation of the nipple. The technique of stimulation is as follows: Women are treated with 5 to 10 mg of conjugated estrogens equine twice a day for 14 days. Caution with regard to the possibility of side effects is given to each woman based upon the known effects of such estrogens on the vascular system. Beginning on the 7th day of estrogen treatment, oral TRH 5-10 mg twice a day, at intervals of about 12 hours, is administered for the final 7 days of treatment with estrogen. At the end of the 14th estrogen-treatment day, TRH is continued while the frequency of nipple stimulation is increased from four times daily to every 4 hours. In the women studied thus far, milk production can be induced within 72 hours following the withdrawal of the estrogen. […]

[6] = test system: puerperally lactating mothers; assay: Reestablishment of lactation in puerperally lactating mothers after emergency surgery; format: in vivo, human; conditions: mothers separated from child by emergency surgery; with coincident sucking
Text: The administration of TRH may also be initiated in puerperally lactating mothers who have to undergo emergency surgery such as polycystectomy, apendectomy, or the repair of fractures. Such surgery usually takes the mother away from the child for periods of time up to 14 days and a mother who is desirous of breastfeeding may find great difficulty in reestablishing lactation when she returns home from the hospital. In such cases, the administration of TRH has been associated with the reestablishment of lactation within 48 hours. It is to be emphasized that such lactation cannot be firmly established without coincident sucking of the nipple by the child.

postpartum women = assay: Low-dose TRH in postpartum women: prolactin versus thyrotropin response; format: in vivo, human
[7] = 20 mg dosage capsules three times a day, oral; cited from earlier work
[8] = 5 mg TRH every 12 h for 5 days, four women
[9] = 20 mg twice daily, Day 1 (before initial ingestion)

With `NC(=O)[C@@H]1CCCN1C(=O)[C@H](Cc1cnc[nH]1)NC(=O)[C@@H]1CCC(=O)N1` [TRH, thyrotropin releasing hormone] the “mean maximal PRL increment” value ([1]; at 60 min, six nursing mothers) was 46.3 ng/mL, the “peripheral PRL throughout the sampling period” value ([1]; sampling to 180 min) was “remained elevated” and the “weekly 1500 h maternal PRL concentration” value ([2]; 5 mg TRH twice daily for 30 days, full nursing) was “not associated with any significant change”. For the same compound, the “milk composition (percent of fat and protein concentration)” value ([2]; TRH versus control group, full nursing) was “did not differ significantly”, the “bleeding patterns (postovulatory vaginal bleeding)” value ([2]; beyond the 14th postpartum week, TRH-treated versus placebo-treated mothers) was “no difference” and the T4 values ([2]; in vivo) was “normal”. For the same compound, the gonadotropin levels ([2]; measured weekly, TRH versus controls) was “identical in controls”, the “infant plasma growth hormone” value [3] was 32.2 ± 4.9 ng/mL and the infant plasma prolactin [3] was 200.3 ± 19.2 ng/mL. The “increase in the PRL concentration” value [4, 8] was 50%, the “milk production and letdown” value [4, 8] was “increased” and the “% Milk fat, Mean ± SE” value [4, 9] was 2.99±0.4%. For the same compound, the “% Milk protein, Mean ± SE” value [4, 9] was 1.81±0.2%, the “Plasma PRL, Mean ± SE” value ([4]; 20 mg twice daily, Day 1 (before initial ingestion), nine women) was 27.8 ± 5.3 ng/mL and the “% Milk fat, Mean ± SE” value ([4]; 20 mg twice daily, Day 2, NS) was 3.88±0.6%. For the same compound, the “% Milk protein, Mean ± SE” value ([4]; 20 mg twice daily, Day 2, NS) was 1.63±0.2%, the “Plasma PRL, Mean ± SE” value ([4]; 20 mg twice daily, Day 2, P .0005 vs day 1) was 53.1 ± 8.7 ng/mL and the “% Milk fat, Mean ± SE” value ([4]; 20 mg twice daily, Day 3, NS) was 3.21± 0.4%. For the same compound, the “% Milk protein, Mean ± SE” value ([4]; 20 mg twice daily, Day 3, NS) was 1.61± 0.1%, the “Plasma PRL, Mean ± SE” value ([4]; 20 mg twice daily, Day 3, P .005 vs day 1) was 73.3 ± 12.4 ng/mL and the “% Milk fat, Mean ± SE” value ([4]; 20 mg twice daily, Day 4, NS) was 3.79±0.4%. The “% Milk protein, Mean ± SE” value ([4]; 20 mg twice daily, Day 4, NS) was 1.62±0.1%, the “Plasma PRL, Mean ± SE” value ([4]; 20 mg twice daily, Day 4, NS vs day 1) was 44.1 ± 7.0 ng/mL and the “% Milk fat, Mean ± SE” value ([4]; 20 mg twice daily, Day 5, NS) was 3.02±0.2%. The “% Milk protein, Mean ± SE” value ([4]; 20 mg twice daily, Day 5, NS) was 1.60±0.1%, the “Plasma PRL, Mean ± SE” value ([4]; 20 mg twice daily, Day 5, NS vs day 1) was 54.8 ± 13.9 ng/mL and the “mean percent fat composition of milk, greater than pretreatment” value ([4]; 20 mg twice daily, day two of treatment, difference not significant) was ~1%. For the same compound, the “percent of lactose concentration in milk” value ([4]; milk samples obtained from all studies) was “remained constant”, the “return to full nursing” value ([4]; partially nursing women after TRH ingestion) was “all were able to return to full nursing” and the “breast engorgement and milk letdown” value ([4]; reported by each woman as a result of TRH ingestion) was “subjective and objective increases”. For the same compound, the reevaluation after discontinuation [5] was “no clinical or laboratory evidence of hyperthyroidism”, the “time to induction of milk production following the withdrawal of the estrogen” value (surrogate mothers; conjugated estrogens equine 5 to 10 mg twice a day 14 days, oral TRH 5-10 mg twice a day from 7th day, nipple stimulation) was ≤ 72 h and the “basal plasma prolactin concentration” value (surrogate mothers; conjugated estrogens equine then oral TRH 5-10 mg twice a day, surrogate mothers) was “increase”. For the same compound, the “time to reestablishment of lactation” value [6] was ≤ 48 h, the “dose for maximum prolactin response, times lower than dose for threshold thyrotropin secretion” value (postpartum women) was 5 to 10 times and the “instances in which peripheral prolactin concentration is elevated” value (postpartum women; TRH in low doses) was 95%. The “effect on the yield or composition of milk” value [7] was “no significant effect”.

Reference: US4125605A, “Method of employing oral TRH” (The United States Government, priority 1977, dated 1978)
